Test results: US20020049173A1, “Alteration of cellular behavior by antisense modulation of mRNA processing” (priority 1999, published 2002)
In the oligonucleotide strings, read from the 5' end, every base follows the letter of its sugar. An asterisk marks phosphorothioate; unmarked linkages are phosphodiester. Other units and linkages are bracketed, terminal groups are in braces. A string of capitals states the bases alone. e = 2'-O-(2-methoxyethyl) (MOE); [5mC] = 5-methylcytosine

Experiments:
[1] = test system: Human IL-5 receptorα; assay: Human IL-5 receptorα protein expression on the cell surface (36 hr), TF-1 cells; type: cell-based; set-up: % INHIB, human IL-5 receptorα protein on the cell surface / % of CONTROL, human IL-5 receptorα protein on the cell surface: concentration or dose not given beside the values
Excerpt: (§1) A series of oligonucleotides were designed to target various splice sites or (intron-exon boundaries) in the IL-5 receptor mRNA.
ISIS 16746, 16748, 16755 and 16758 inhibited human IL-5 receptorα protein by over 50% in this assay and are therefore preferred. ISIS 16758 and 16755 were chosen for further study.

[2] = test system: TF-1 cells; assay: Apoptosis induction in TF-1 cells, Annexin-V staining; type: cell-based, human; conditions: 48 hours, IL-5 0.5 ng/ml
Method: 1×10^6 TF-1 cells cultured in IL-5 (0.5 ng/ml) were collected 48 hours following oligonucleotide treatment (transfection was by electroporation as described in previous examples) and phosphatidylserine expression was detected as a measure of apoptosis using the Annexin-V staining kit (Clontech, Palo Alto, Calif.) according to the manufacturer's instructions. Briefly, cells were resuspended in 0.2 ml of staining buffer (10 mM Hepes, pH 7.4, 140 mM NaCl, 5 mM CaCl2) and […] of propidium iodide (50 μg/ml) and 5 μl of Annexin V reagent were added at 4° C. for 10 minutes. The samples were diluted with FacsFlow (Becton Dickinson, Franklin Lakes N.J.) buffer and analyzed on a Becton Dickinson FACScan.

[3] = test system: TF-1 cells; assay: IL-5-induced TF-1 cell proliferation, [3H]-thymidine incorporation; type: cell-based, human; conditions: for % of control thymidine incorporation: compared to untreated controls
Method: 2.5×10^4 TF-1 cells were incubated in 96-well plates in 200 μl complete RPMI in the absence of IL-5 for 16 hours following electroporation. IL-5 (0.5 ng/ml) was added and the cultures were pulsed with 1 μCi of [^3H]-thymidine for the last 8 hours of a 48-hour culture period. The cells were harvested on glass fiber filters and analyzed for thymidine incorporation (proportional to cell proliferation) by liquid scintillation counting.
Results are compared to thymidine incorporation in untreated controls.

[4] = test system: Human IL-5 receptorα membrane form mRNA; assay: Human IL-5 receptorα membrane form mRNA expression (18 hr); type: cell-based; set-up: % INHIB'N, human IL-5 receptorα membrane form mRNA / % of CONTROL, human IL-5 receptorα membrane form mRNA: concentration or dose not given beside the values
Excerpt: mRNA transcripts encoding the membrane form of the human IL-5 receptorα contain exons 1-10 and 12-14. Exon 11 is spliced out. It is, therefore, possible to target sequences in exons 1-10 which are common to both soluble and membrane forms of the receptor, or to selectively target sequences only present in the membrane form (exons 12-14). Oligonucleotides were also designed to target various intron/exon boundaries downstream of exon 11, with the intention of preventing successful splicing out of exon 11 and thus redirecting splice products away from the membrane form and in favor of the soluble form of IL-5 receptorα.
as §1

[5] = test system: human bcl-x mRNA; assay: Total bcl-x mRNA and bcl-xs/bcl-xl ratio in A549 cells, RNase protection; type: cell-based
[6] = test system: human bcl-xl mRNA; assay: bcl-xl mRNA in A549 cells, RIBOQUANT RNase protection; type: cell-based; conditions: 200 nM oligonucleotide (Table 15)
Excerpt: (§2) In accordance with the present invention, a series of oligonucleotides were designed to target different regions of human bcl-x RNA, using published sequences (Boise, L. H., et al., 1993, Cell 74, 597-608; Genbank Accession No. L20121, locus name “HSBCLXL,” incorporated herein as SEQ ID NO: 39). Antisense oligonucleotides were designed to target areas of exon 1 and exon 2 of human bcl-x, particularly around the exon 1/exon 2 splice site and in sequence regions present in bcl-xl but not in bcl-xs. All backbone linkages are phosphorothioates; All 2′MOE cytosines are 5-methylcytosines.
(§3) Oligonucleotides were evaluated for their respective effects on bcl-xs and bcl-xl3 mRNA levels in A549 cells along with total bcl-x mRNA levels, using the RIBOQUANT™ RNase protection kit (Pharmingen, San Diego Calif.). All assays were performed according to manufacturer's protocols.
(§4) A “walk” was done in this region with 20mer 2′-MOE phosphorothioate oligonucleotides targeted to sequences whose 5′ ends were 24, 26, 29, 31, 33, 37, 39, 41, 43, 44, 45 and 47 bases upstream of the splice site. These oligonucleotides were screened as before at a dose of 200 nM oligonucleotide for effect on short and long bcl-x transcripts.

[7] = test system: human bcl-xs mRNA; assay: bcl-xs mRNA in A549 cells, RIBOQUANT RNase protection; type: cell-based; conditions: 200 nM oligonucleotide (Table 15)
Excerpt: as §2, §3, §4

[8] = test system: human bcl-x mRNA; assay: Total bcl-x mRNA and bcl-xs/bcl-xl ratio in A549 cells, RNase protection; type: cell-based; conditions: for bcl-xs/bcl-xl: 200 nM oligonucleotide (Table 15); for ratio of bcl-xs/bcl-xl: Oligo Concentration 200 (unit not given)
Excerpt: as §2, §3, §4

[9] = test system: E-selectin mRNA (Type III polyadenylation signal and site); assay: E-selectin transcript forms by Northern blot in TNF-α-induced HUVEC; type: cell-based, human; conditions: increasing oligonucleotide dose, TNF-α 2 hours
Method: HUVEC (Clonetics, San Diego, Calif.) were cultivated in endothelial basal media supplemented with 10% fetal bovine serum. Cells were treated with oligonucleotides as described previously (Chiang, 1991, J. Biol. Chem. 27:18162-18171; Vickers, 2000, Nucleic Acids Res. 28:1340-1347). Briefly, cells were incubated with a mixture of Lipofectin (Gibco BRL, Gaithersburg, Md.) and oligonucleotide for 4 hours. Cells were incubated for 2-24 hours, then treated with 5 ng/ml TNF-α for 2-3 hours to induce expression of E-selectin. Cells were then washed extensively with phosphate buffered saline (PBS), fresh complete media was added and cells were incubated at 37° C. until harvested.
(§5) Total RNA was harvested from HUVEC at various times following TNF-α induction using a ToTALLY RNA kit (Ambion) according to the manufacturer's protocol). For Northern blots, RNA was separated on a 1.2% agarose gel containing 1.1% formaldehyde, then transferred to nylon membranes. Blots were hybridized with [^32P]-dCTP random prime labeled cDNA probes specific for E-selectin or […] (G3PDH) for 2 hours in Rapid-hyb solution (Amersham). Blots were washed with 2×SSC containing 0.1% SDS at room temperature, followed by 0.1×SSC containing 0.1% SDS at 60° C. Quantitation of RNA expression was performed using a Molecular Dynamics PhosphorImager. Anchored reverse transcriptase polymerase chain reaction (RT/PCR) was performed essentially as described by Chu et al. (supra.).
HUVEC were treated with 2′-O-methoxyethyl (MOE)/phosphorothioate antisense oligonucleotides directed to the Type III polyadenylation signal and site (Table 1A) as described above. After about 24 hours, cells were treated with TNF-α to induce E-selectin expression. Cells were harvested after 2 hours and RNA was isolated. E-selectin expression was analyzed by Northern blotting. […] With increasing oligonucleotide dose, the longer Type III message decreased while a shorter message increased (FIG. 2). This shorter message most likely represents a combination of Type I and II messages, because the Type II message is just 158 bases longer than the Type I message, and the difference in sizes cannot be resolved on the gel which was used.

[10] = test system: E-selectin mRNA; assay: Non-quantitative RT-PCR of E-selectin Type I, II and III transcripts in HUVEC; type: cell-based, human; conditions: relative to untreated cells, 200 nM stated for ISIS 106344
Method: as §5
To determine if processing could be controlled more specifically, oligonucleotides were also designed to the upstream polyadenylation signals. Non-quantitative RT-PCR was used to distinguish among the three forms of the message. In the absence of oligonucleotide, all three types of transcript were detected. […] This difference may be due to variation in the efficiency of PCR amplification on the varying length products, with the shorter Type I and II messages being more efficiently amplified than the Type III product. […] To determine if the effects of ISIS 106344 were unique, antisense oligonucleotides were designed to the Type I and Type II polyadenylation sites.
To evaluate whether treatment with two oligonucleotides would result in the production of a single species of E-selectin message, HUVEC were treated with ISIS 106344, and either ISIS 135568 or ISIS 135570 (150 nM each). […] Cells were also treated with both ISIS 135568 and ISIS 135570.

[11] = Oligo Concentration 50 (unit not given)
[12] = Oligo Concentration 100 (unit not given)
[13] = Oligo Concentration 400 (unit not given)
[14] = Oligo Concentration 600 (unit not given)

16758 (antisense eT*e[5mC]*eA*eT*e[5mC]*eA*eT*eT*eT*e[5mC]*e[5mC]*eT*eG*eG*eT*eG*eG*eA*eA*eA) [compound 16758]
% INHIB, human IL-5 receptorα protein on the cell surface ([1]; 36 hr): 94.5% | % of CONTROL, human IL-5 receptorα protein on the cell surface ([1]; 36 hr): 5.5% | % Apoptotic cells ([2]; oligo dose 10 μM): 33.1% | % Apoptotic cells ([2]; oligo dose 15 μM): 40.1% | % Apoptotic cells ([2]; oligo dose 20 μM): 50.4% | % of control thymidine incorporation ([3]; oligo dose 10 μM): 42.8% | % of control thymidine incorporation ([3]; oligo dose 15 μM): 39.2% | % of control thymidine incorporation ([3]; oligo dose 20 μM): 19.9% | % of CONTROL, human IL-5 receptorα membrane form mRNA ([4]; 18 hr): 176%

18011 (eT*e[5mC]*eA*eG*e[5mC]*eA*eG*eT*eT*eA*e[5mC]*eT*eT*eG*eT*eG*eT*eA*eA*eA) [compound 18011]
% Apoptotic cells ([2]; oligo dose 10 μM): 19% | % Apoptotic cells ([2]; oligo dose 15 μM): 23.6% | % Apoptotic cells ([2]; oligo dose 20 μM): 21.8% | % of control thymidine incorporation ([3]; oligo dose 10 μM): 95.6% | % of control thymidine incorporation ([3]; oligo dose 15 μM): 97.9% | % of control thymidine incorporation ([3]; oligo dose 20 μM): 84.6%

22783 (e[5mC]*eT*eG*eG*eA*eT*e[5mC]*e[5mC]*eA*eA*eG*eG*e[5mC]*eT*e[5mC]*eT*eA*eG*eG*eT) [compound 22783]
ratio of bcl-xs/bcl-xl [5, 11]: 3 | ratio of bcl-xs/bcl-xl [5, 12]: 2 | ratio of bcl-xs/bcl-xl [5, 13]: 24 | ratio of bcl-xs/bcl-xl [5, 14]: 28 | % CONTROL bcl-xl [6]: 47% | % CONTROL bcl-xs [7]: 247% | bcl-xs/bcl-xl ([8]; A549 cells): 5.25 | bcl-xs/bcl-xl (%) ([8]; A549 cells, no oligo 17.56): 293.1% | ratio of bcl-xs/bcl-xl [8]: 7

26066 (ATCCAAGGCTCTAGGTGGTC; all 2'-MOE, all phosphorothioate, methylation of C not given here) [compound 26066]
ratio of bcl-xs/bcl-xl [5, 11]: 6 | ratio of bcl-xs/bcl-xl [5, 12]: 11 | ratio of bcl-xs/bcl-xl [5, 13]: 25 | % CONTROL bcl-xl [6]: 26% | % CONTROL bcl-xs [7]: 400% | bcl-xs/bcl-xl ([8]; A549 cells): 15.38 | ratio of bcl-xs/bcl-xl [8]: 24

26080 (antisense CTGGTTACACGACTCCAGGT; mismatch control, further chemistry not given here) [compound 26080]
ratio of bcl-xs/bcl-xl [5, 13]: 1 | ratio of bcl-xs/bcl-xl [5, 14]: 3 | ratio of bcl-xs/bcl-xl [8]: <1

ISIS 16758: TCATCATTTCCTGGTGGAAA, SEQ ID 35; I11/E12; uniform 2′-MOE (antisense eT*e[5mC]*eA*eT*e[5mC]*eA*eT*eT*eT*e[5mC]*e[5mC]*eT*eG*eG*eT*eG*eG*eA*eA*eA)
% INHIB, human IL-5 receptorα protein on the cell surface ([1]; 36 hr): over 50% | IC50 ([1]; TF-1 cells, read-out: IC50 for reduction of IL-5 receptorα cell surface protein): ~5 µM | cell proliferation in response to IL-5 (summary) ([3]; TF-1 cells): greatly reduces cellular response to IL-5 | effect on IL-5 receptorα mRNA levels [4]: without reducing mRNA levels

ISIS 106345: AGAAAGAGACTTAACACAGA, SEQ ID 67; uniformly 2′-MOE phosphorothioate; E-selectin Type III poly(A) site (all 2'-MOE, all phosphorothioate, methylation of C not given here)
longer Type III E-selectin message (Northern blot) [9]: decreased | shorter E-selectin message (Type I and II) (Northern blot) [9]: increased

ISIS 135568: GCTTTTATTAGTTCAAAACGTTTGG, SEQ ID 70; E-selectin Type II poly(A) signal (all 2'-MOE, all phosphorothioate, methylation of C not given here)
Type I E-selectin message (RT-PCR) [10]: corresponding increases | Type II E-selectin message (RT-PCR) [10]: sharp decrease | Type III E-selectin message (RT-PCR) [10]: corresponding increases

ISIS 135570: CAGAACTTTATTCTGGTTAACATCATG, SEQ ID 71; E-selectin Type I poly(A) signal (all 2'-MOE, all phosphorothioate, methylation of C not given here)
Type I E-selectin message (RT-PCR) [10]: greatly reduced | Type II E-selectin message (RT-PCR) [10]: increased | Type III E-selectin message (RT-PCR) [10]: increased

SEQ ID NO 58: CCAAGGCTCTAGGTGGTCAT; 20mer 2′-MOE phosphorothioate, no ISIS # printed; Exon 1L 658-677 (all 2'-MOE, all phosphorothioate, methylation of C not given here)
% CONTROL bcl-xl [6]: 26% | % CONTROL bcl-xs [7]: 271% | bcl-xs/bcl-xl ([8]; A549 cells): 10.42
